These results are taken from US20130236529A1, “COMPOSITION AND METHODS TO ENHANCE ANTI-OXIDATION, GUT FLORA AND IMMUNITY IN PETS” (FLAVITPURE, INC., priority 2012, published 2013).

In data set [1] the test system is human lung embryonic fibroblasts (TIG-1). The note with it: TIG-1 cells; cited from earlier work.
The conditions of data set [2]: relative to quercetin; cited from earlier work.
Data set [3] concerns NQO1. The note with it: microarray, in the presence of taxifolin; cited from earlier work.
Data set [4] has as its system CYP2E1. The settings on record: microarray, in the presence of taxifolin; cited from earlier work.
Data set [5] has as its system GSTM1. The note with it: microarray, in the presence of taxifolin; cited from earlier work.
The subject of data set [6] is umbilical vein endothelial (HUVE) cells. The settings on record: cited from earlier work.
Data set [7] in a line: ORAC hydro antioxidant capacity assay. The source says:
The majority of HAT-based assays apply a competitive reaction scheme, in which antioxidant and substrate compete for thermally generated peroxyl radicals through the decomposition of azo compounds. ORAC is an assay for the […] oxygen radical absorbance capacity. The ORAC hydro tests the capacity dihydroquercetin generated hydrogen atom transfer (HAT) to compete for thermally generated peroxyl radicals and hydroxyl radicals. For the latter it is necessary to use the ORAC assay test. Unlike electron transfer based assays that measure an antioxidant's reducing capacity, and the hat-based assays measure the hydrogen atom donating capacity. The hydrogen atom transfer is a key step in the radical chain reaction. Therefore, the hat-based assays are more relevant to the radical chain-breaking antioxidant capacity. Among all the hat-based assays, ORAC adopted an AUC (area under curve) technique to quantify antioxidant capacity. […] This approach unifies the lag time method and initial rate method, and it is particularly useful for food samples, which often contain multiple ingredients and have complex reaction kinetics. Therefore, the ORAC assay has been broadly applied in academics and the food and supplement industry as the method of choice to quantify antioxidant capacity. […]

For data set [8] the following is noted: oxidation of 2′-deoxyguanosine, Fenton reaction catalyzed by copper; cited from earlier work.

In the case of `O=C1c2c(O)cc(O)cc2O[C@H](c2ccc(O)c(O)c2)[C@H]1O` [Dihydroquercetin], the 50% lethal concentration in data set [1] was more than 300 µmol; in data set [6], more than 200 µmol. The “times less mutagenic than quercetin” value in data set [2] is on record as 400 times. Moreover, in data set [3], the “expression of phase II detoxification enzyme NQO1” value is “upregulated”. In addition, the “expression of phase I detoxification enzyme CYP2E1” value in data set [4] was “down regulated”. Besides, the “expression of phase II detoxification enzyme GSTM1” value in data set [5] was “upregulated”. Further, the orachydro value in data set [7] (per 420 mg capsule) is recorded as ≥ 300 micromole of trolox equivalent per 420 mg capsule; in data set [7] (per gram), ≥ 800 micromole trolox equivalent per gram. Further, the pro-oxidant activity result in data set [8] is given as “did not present pro-oxidant activity”.

In the case of catechin [reference compound], the pro-oxidant activity entry in data set [8] is “did not present pro-oxidant activity”.
